Assay results as given in patent US10336732B2, “1-heterocyclyl isochromanyl compounds and analogs for treating CNS disorders” (Sunovion Pharmaceuticals Inc., priority 2015, dated 2019).

The compounds below were run on mice (assay: Neuropharmacological assay (SmartCube), behavioral signature of compound-treated mice). Settings: i.p. 15 min before behavioral test, most efficacious dose(s) of 3 doses.
Format: in vivo
Outline: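 Mice received compound i.p. in NMP/PEG/propylene glycol vehicle at 3 doses, 15 min before testing. Video-captured behavior was algorithmically compared with a reference-drug signature database.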

Compound | AD: ADHD (probability that behavioral signature matches class) | AG: analgesic (probability that behavioral signature matches class) | AX: anxiolytic (probability that behavioral signature matches class) | CE: cognitive enhancer (probability that behavioral signature matches class) | DP: anti-depressant (probability that behavioral signature matches class) | HA: hallucinogen (probability that behavioral signature matches class) | MS: mood stabilizer (probability that behavioral signature matches class) | PS: anti-psychotic (probability that behavioral signature matches class) | SD: sedative hypnotic (probability that behavioral signature matches class) | UN: uncharacterized CNS activity (probability that behavioral signature matches class)
COc1cccc2c1[C@@H]([C@H]1CCCN1)OCC2 [Compound I-50, (R)-2-((S)-8-methoxyisochroman-1-yl)pyrrolidine] | + (LOQ ≤ + <5%) | ++ (5% ≤ ++ <25%) | +++ (25% ≤ +++ <50%) | ++ (5% ≤ ++ <25%) | ++ (5% ≤ ++ <25%) | + (LOQ ≤ + <5%) | + (LOQ ≤ + <5%) | ++ (5% ≤ ++ <25%) | + (LOQ ≤ + <5%) | +++ (25% ≤ +++ <50%)
COc1cccc2c1[C@@H]([C@@H]1CCCN1)OCC2 [Compound I-48, (S)-2-((S)-8-methoxyisochroman-1-yl)pyrrolidine] | + (LOQ ≤ + <5%) | +++ (25% ≤ +++ <50%) | ++ (5% ≤ ++ <25%) | ++ (5% ≤ ++ <25%) | ++ (5% ≤ ++ <25%) | + (LOQ ≤ + <5%) | + (LOQ ≤ + <5%) | ++ (5% ≤ ++ <25%) | + (LOQ ≤ + <5%) | + (LOQ ≤ + <5%)
N#Cc1ccc2c(c1)[C@@H]([C@H]1CCCN1)OCC2 [Compound I-42, (S)-1-((R)-pyrrolidin-2-yl)isochroman-7-carbonitrile] | + (LOQ ≤ + <5%) | ++ (5% ≤ ++ <25%) | ++ (5% ≤ ++ <25%) | ++ (5% ≤ ++ <25%) | +++ (25% ≤ +++ <50%) | + (LOQ ≤ + <5%) | + (LOQ ≤ + <5%) | ++ (5% ≤ ++ <25%) | ++ (5% ≤ ++ <25%) | + (LOQ ≤ + <5%)
Fc1ccc2c(c1)CCCO[C@H]2[C@H]1CCCN1 [Compound I-113, (R)-2-((R)-7-fluoro-1,3,4,5-tetrahydrobenzo[c]oxepin-1-yl)pyrrolidine] | + (LOQ ≤ + <5%) | ++ (5% ≤ ++ <25%) | ++ (5% ≤ ++ <25%) | ++ (5% ≤ ++ <25%) | +++ (25% ≤ +++ <50%) | + (LOQ ≤ + <5%) | + (LOQ ≤ + <5%) | ++ (5% ≤ ++ <25%) | ++ (5% ≤ ++ <25%) | + (LOQ ≤ + <5%)
c1ccc(-c2ccc3c(c2)CCO[C@H]3[C@@H]2CCCN2)nc1 [Compound I-58, 2-((R)-1-((S)-pyrrolidin-2-yl)isochroman-6-yl)pyridine] | + (LOQ ≤ + <5%) | ++ (5% ≤ ++ <25%) | ++ (5% ≤ ++ <25%) | + (LOQ ≤ + <5%) | +++ (25% ≤ +++ <50%) | + (LOQ ≤ + <5%) | ++ (5% ≤ ++ <25%) | ++ (5% ≤ ++ <25%) | + (LOQ ≤ + <5%) | + (LOQ ≤ + <5%)
c1ccc2c(c1)CCO[C@H]2[C@@H]1CCCN1 [Compound I-18, (S)-2-((R)-isochroman-1-yl)pyrrolidine] | + (LOQ ≤ + <5%) | ++ (5% ≤ ++ <25%) | +++ (25% ≤ +++ <50%) | ++ (5% ≤ ++ <25%) | ++ (5% ≤ ++ <25%) | + (LOQ ≤ + <5%) | ++ (5% ≤ ++ <25%) | +++ (25% ≤ +++ <50%) | ++ (5% ≤ ++ <25%) | ++ (5% ≤ ++ <25%)
CC1(C)CN[C@@H]([C@H]2OCCc3ccccc32)C1 [Compound I-62, (R)-2-((S)-isochroman-1-yl)-4,4-dimethylpyrrolidine] | + (LOQ ≤ + <5%) | ++ (5% ≤ ++ <25%) | ++ (5% ≤ ++ <25%) | +++ (25% ≤ +++ <50%) | ++ (5% ≤ ++ <25%) | + (LOQ ≤ + <5%) | + (LOQ ≤ + <5%) | ++ (5% ≤ ++ <25%) | + (LOQ ≤ + <5%) | + (LOQ ≤ + <5%)
Fc1ccc2c(c1)[C@@H]([C@@H]1CCCN1)OCCC2 [Compound I-106, (S)-2-((S)-8-fluoro-1,3,4,5-tetrahydrobenzo[c]oxepin-1-yl)pyrrolidine] | + (LOQ ≤ + <5%) | ++ (5% ≤ ++ <25%) | ++ (5% ≤ ++ <25%) | +++ (25% ≤ +++ <50%) | + (LOQ ≤ + <5%) | + (LOQ ≤ + <5%) | + (LOQ ≤ + <5%) | ++ (5% ≤ ++ <25%) | + (LOQ ≤ + <5%) | + (LOQ ≤ + <5%)
CC1(C)Cc2ccccc2[C@H]([C@H]2CCCN2)O1 [Compound I-68, (R)-2-((R)-3,3-dimethylisochroman-1-yl)pyrrolidine] | + (LOQ ≤ + <5%) | + (LOQ ≤ + <5%) | + (LOQ ≤ + <5%) | + (LOQ ≤ + <5%) | + (LOQ ≤ + <5%) | + (LOQ ≤ + <5%) | + (LOQ ≤ + <5%) | + (LOQ ≤ + <5%) | + (LOQ ≤ + <5%) | + (LOQ ≤ + <5%)
c1cc2c(c3c1CO[C@@H]3[C@@H]1CCCN1)OCO2 [Compound I-142, (S)-2-((S)-6,8-dihydro-[1,3]dioxolo[4,5-e]isobenzofuran-8-yl)-pyrrolidine] | + (LOQ ≤ + <5%) | ++ (5% ≤ ++ <25%) | +++ (25% ≤ +++ <50%) | ++ (5% ≤ ++ <25%) | ++ (5% ≤ ++ <25%) | + (LOQ ≤ + <5%) | + (LOQ ≤ + <5%) | ++ (5% ≤ ++ <25%) | + (LOQ ≤ + <5%) | ++ (5% ≤ ++ <25%)
N#Cc1ccc2c(c1)[C@@H]([C@@H]1CCCN1)OCC2 [Compound I-39, (S)-1-((S)-pyrrolidin-2-yl)isochroman-7-carbonitrile] | + (LOQ ≤ + <5%) | ++ (5% ≤ ++ <25%) | ++ (5% ≤ ++ <25%) | ++ (5% ≤ ++ <25%) | + (LOQ ≤ + <5%) | + (LOQ ≤ + <5%) | + (LOQ ≤ + <5%) | + (LOQ ≤ + <5%) | + (LOQ ≤ + <5%) | ++ (5% ≤ ++ <25%)

Same assay, conditions: i.p. 15 min before behavioral test, most efficacious dose(s) of 3 doses

Compound | XG: anxiogenic (probability that behavioral signature matches class)
COc1cccc2c1[C@@H]([C@H]1CCCN1)OCC2 [Compound I-50, (R)-2-((S)-8-methoxyisochroman-1-yl)pyrrolidine] | + (LOQ ≤ + <5%)
COc1cccc2c1[C@@H]([C@@H]1CCCN1)OCC2 [Compound I-48, (S)-2-((S)-8-methoxyisochroman-1-yl)pyrrolidine] | + (LOQ ≤ + <5%)
N#Cc1ccc2c(c1)[C@@H]([C@H]1CCCN1)OCC2 [Compound I-42, (S)-1-((R)-pyrrolidin-2-yl)isochroman-7-carbonitrile] | + (LOQ ≤ + <5%)
Fc1ccc2c(c1)CCCO[C@H]2[C@H]1CCCN1 [Compound I-113, (R)-2-((R)-7-fluoro-1,3,4,5-tetrahydrobenzo[c]oxepin-1-yl)pyrrolidine] | + (LOQ ≤ + <5%)
c1ccc(-c2ccc3c(c2)CCO[C@H]3[C@@H]2CCCN2)nc1 [Compound I-58, 2-((R)-1-((S)-pyrrolidin-2-yl)isochroman-6-yl)pyridine] | + (LOQ ≤ + <5%)
c1ccc2c(c1)CCO[C@H]2[C@@H]1CCCN1 [Compound I-18, (S)-2-((R)-isochroman-1-yl)pyrrolidine] | + (LOQ ≤ + <5%)
CC1(C)CN[C@@H]([C@H]2OCCc3ccccc32)C1 [Compound I-62, (R)-2-((S)-isochroman-1-yl)-4,4-dimethylpyrrolidine] | + (LOQ ≤ + <5%)
Fc1ccc2c(c1)[C@@H]([C@@H]1CCCN1)OCCC2 [Compound I-106, (S)-2-((S)-8-fluoro-1,3,4,5-tetrahydrobenzo[c]oxepin-1-yl)pyrrolidine] | + (LOQ ≤ + <5%)
CC1(C)Cc2ccccc2[C@H]([C@H]2CCCN2)O1 [Compound I-68, (R)-2-((R)-3,3-dimethylisochroman-1-yl)pyrrolidine] | + (LOQ ≤ + <5%)
c1cc2c(c3c1CO[C@@H]3[C@@H]1CCCN1)OCO2 [Compound I-142, (S)-2-((S)-6,8-dihydro-[1,3]dioxolo[4,5-e]isobenzofuran-8-yl)-pyrrolidine] | + (LOQ ≤ + <5%)
N#Cc1ccc2c(c1)[C@@H]([C@@H]1CCCN1)OCC2 [Compound I-39, (S)-1-((S)-pyrrolidin-2-yl)isochroman-7-carbonitrile] | + (LOQ ≤ + <5%)
